Laboratory results as given in US8889729B2, “Compositions for treating amyloid associated diseases” (Tel Aviv University Future Technology Development L.P., priority 2004, dated 2014).

Key:
Aβ1-40 = biological target: T1, Aβ1-40 (Homo sapiens, UniProt P05067); experiment: AFM structural analysis of Aβ1-40 samples from kinetic studies; details: 50 μM compound, once control samples reached the polymerization phase
T1 construct: Synthetic lyophilized β-amyloid polypeptides (Aβ 1-40 and Aβ 1-42, >98% pure); purchased Bachem (Bubendorf, Switzerland); host or cells: chemical synthesis
Procedure: Atomic force microscopy (AFM): For each experiment, a 60 μl sample of was taken for AFM measurement at three different time points correlating to the amyloidogenic kinetic curve, as detailed hereinafter. The sample was centrifuged for 1.5 minutes at 13,000 rpm and 40 μl of the supernatant was removed. The remaining 20 μl droplet of the solution was re-suspended and deposited onto freshly cleaved mica for 1.5 minutes. The substrate was washed with 160 μl of double-distilled H2O to reduce background and to eliminate salts and buffer contaminants. The mica samples were then dried at room temperature. At least four regions of the mica surface were examined to ensure that similar structures existed throughout the sample. AFM images were obtained using a Veeco NanoScope IV MultiMode AFM (Digital Instruments, Santa Barbara, USA) in tapping mode. Measurements were performed at a resonance frequency of about 321.4 kHz.
Additional structural analyses were performed using AFM measurements, performed with Aβ1-40 samples taken from the kinetic studies once the control samples reached the different fibrillogenesis phase.

Aβ 1-40 polypeptide = biological target: T2, Aβ 1-40 polypeptide (Homo sapiens, UniProt P05067); experiment: Thioflavin T fluorescence assay of Aβ 1-40 fibrillization (Example 1); type: biochemical; details: 10 μM compound
T2 construct: Recombinant β-amyloid (Aβ 1-40, >98% pure) polypeptide; purchased rPeptide (Athens Ga., USA)
Procedure: Fibrillization of Aβ 1-40 polypeptide was monitored using a Thioflavin T (ThT) dye binding assay. […] Fluorescence measurements, made after addition of the ThT solution to each sample at 37° C., were carried out using a Jobin Yvon FluoroMax-3 spectrometer (excitation 450 nm, 2.5 nm slit; emission 480 nm, 5 nm slit, integration time of 1 second). Background was subtracted from each sample. The level of amyloid formation was detected using the above described Thioflavin T (ThT) dye binding assay.

Aβ 1-42 = biological target: T3, Aβ 1-42 (Homo sapiens, UniProt P05067); experiment: Thioflavin T fluorescence assay of Aβ 1-42 fibrillization (Example 2); type: biochemical
T3 construct: Aβ 1-40 and Aβ 1-42, >98% pure) were purchased from Bachem; purchased Bachem (Bubendorf, Switzerland); host or cells: chemical synthesis
Procedure: Aβ solutions: Synthetic lyophilized β-amyloid polypeptides (Aβ 1-40 and Aβ 1-42, >98% pure) were purchased from Bachem (Bubendorf, Switzerland). A 100 μM Aβ stock solution was prepared by dissolving Aβ1-40 or Aβ1-42 in dimethylsulfoxide (DMSO) and sonicating the resulting solution during 1 minute to avoid pre-aggregation. Aβ solutions were prepared by immediate dilution with 10 mM phosphate-buffered saline (100 mM NaCl, 0.5 mM EDTA, pH 7.4) to a final concentration of 10 μM (containing 10% (v/v) DMSO).
Indole derivatives stock solutions were prepared by dissolving an indole derivative in DMSO, so as to achieve a concentration of 20 mM and then diluting the solution with 10 mM PBS buffer (100 mM NaCl, 0.5 mM EDTA, pH 7.4) to a final concentration of 100 μM (containing 0.5% (v/v) DMSO).
Thioflavin T fluorescence assay: Fibrillization of A[…] 1-42 polypeptide was monitored using a Thioflavin T (ThT) dye binding assay. A 10 μM Aβ solution (either Aβ1-40 or Aβ1-42) was prepared as described above and was immediately mixed with the indole derivative stock solutions (100 μM), so as to achieve a final concentration of 5 μM for Aβ and various concentrations of the indole derivative. For each measurement, ThT was added to a 0.1 ml sample, to give a final concentration of 0.3 μM ThT and 0.4 μM Aβ. The samples were incubated at 37° C. Fluorescence measurements, made after addition of the ThT solution to each sample at 37° C., were carried out using a Jobin Yvon FluoroMax-3 spectrometer (excitation 450 nm, 2.5 nm slit; emission 480 nm, 5 nm slit, integration time of 1 second). Background was subtracted from each sample. Each experiment was repeated in quadruplicate.
Inhibition of amyloid formation: The level of amyloid formation was detected using the above described Thioflavin T (ThT) dye binding assay. Fluorescence (relative intensity, measured in units of percent) of the ThT bound Aβ 1-42 remaining following 24 hours at 37° C., in the absence, and in the presence of 50 μM indole or indole derivative, was measured. Each measurement was recorded immediately after the fluorescence intensity reached a maximum value. The results obtained with representative indole derivatives, each representing a mean of four independent measurements along with an associated error bar representing a standard error, are graphically presented in FIG. 4.
Concentration Dependence of Indole Derivatives inhibition activity: To examine the inhibition efficiency of the indole derivatives, the concentration dependence of inhibition of fibril formation was studied. The fibrillization of Aβ1-42, with and without an indole derivative was measured using the ThT fluorescence assay described above at a fixed incubation time of 24 hours.

PC12 cells = experiment: Aβ1-40 cytotoxicity on PC12 cells, MTT assay; type: cell-based; details: both assays (T=0 and after 7 days incubation)
Procedure: Cell culture: PC12 pheochromocytoma cell line, a cultured benign tumor of the sympathetic nervous system, was routinely grown in Dulbecco's Modified Eagle Medium (DMEM) supplemented with 8% (v/v) fetal calf serum, 8% (v/v) horse serum, 100 U/ml penicillin, 100 U/ml streptomycin, and 2 mM L-glutamine (Biological industries, Israel). The cells were maintained at 37° C. in a humidified atmosphere containing 5% CO2. Cell cytotoxicity assay: PC-12 cells (3×10^5 cells/ml) were cultured in 96-well microplates (100 μl/well) and were incubated overnight at 37° C. The wells were then washed once with serum free-DMEM, so as to exclude the effect of the serum. To each well 100 μl of 5 μM Aβ1-40 (prepared from a stock solution of 0.5 mM in 10 mM NaOH) and an indole derivative at various concentrations were added. Each determination was made in quadruplicate. Following incubation for 24 hours at 37° C., cell viability was evaluated using the MTT assay (as described in Hansen et al. (1989) J. Immunol. Methods 119, 203-210). The effect of the indole derivatives on the formation of cytotoxic amyloid assemblies was determined by measuring the toxicity of the formed Aβ on pheochromocytoma cell line cultures (PC12) in the presence and absence of the indole derivatives. […] Cell viability was determined after 24 hours using the MTT assay. Cells incubated with only 5 μM Aβ1-40 served as the control.

T2 sequence (P05067 672-711 limits assumed): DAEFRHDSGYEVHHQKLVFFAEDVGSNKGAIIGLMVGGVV
T3 sequence (P05067 672-713 limits assumed): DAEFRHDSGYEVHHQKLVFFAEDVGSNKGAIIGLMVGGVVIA
T1 sequence (P05067 672-711 limits assumed): as the sequence (P05067 672-711 limits assumed) above

SMILES: OCc1c[nH]c2ccccc12 [indole-3-carbinol]
- amyloid fibril formation by AFM (Aβ1-40): small amounts of amyloid fibrils in the form of long wires
- level of fluorescence at the plateau compared to non-inhibited Aβ 1-40 (Aβ 1-40 polypeptide; 5 μM Aβ 1-40): about a third
- time to attainment of fluorescence plateau (Aβ 1-40 polypeptide; 5 μM Aβ 1-40, 37° C., without compound about 200 hours): about 300 hours
- levels of ThT fluorescence following about 100 hours (Aβ 1-40 polypeptide; 5 μM Aβ 1-40, remaining duration of assay): significantly lower levels of fluorescence
- lag-time of fibrillization (Aβ 1-40 polypeptide; 5 μM Aβ 1-40, control lag-phase about 100 hours): significantly extended
- inhibition of β-amyloid polypeptide fibril formation (Aβ 1-42; 50 μM compound, 5 μM Aβ 1-42, 24 hours at 37° C.): significantly inhibited
- concentration dependence of inhibition of fibril formation (Aβ 1-42; Aβ1-42, fixed incubation time of 24 hours): only at high concentrations and showed no dose-dependency
- IC50 (Aβ 1-42; Aβ1-42 fibrillization, 24 hours, calculated by the curve equation, read-out: apparent IC50): ~200 µM
- inhibitory effect on Aβ1-40 cytotoxicity (PC12 cells): No significant inhibition of cytotoxicity
